Data taken from ChEMBL document CHEMBL1201862, “PubChem BioAssay data set” (2004).
Calls of active or inactive are those of the source.

Experiments:
[1] = molecular target: T1, Neuropeptide Y receptor type 1 (Homo sapiens, UniProt P25929); type: functional;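 also: HEK293 cells with a CNG channel challenged with NPY then isoproterenol; potency as antagonist that reverses NPY suppression of cAMP signal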
T1 sequence (P25929 whole entry): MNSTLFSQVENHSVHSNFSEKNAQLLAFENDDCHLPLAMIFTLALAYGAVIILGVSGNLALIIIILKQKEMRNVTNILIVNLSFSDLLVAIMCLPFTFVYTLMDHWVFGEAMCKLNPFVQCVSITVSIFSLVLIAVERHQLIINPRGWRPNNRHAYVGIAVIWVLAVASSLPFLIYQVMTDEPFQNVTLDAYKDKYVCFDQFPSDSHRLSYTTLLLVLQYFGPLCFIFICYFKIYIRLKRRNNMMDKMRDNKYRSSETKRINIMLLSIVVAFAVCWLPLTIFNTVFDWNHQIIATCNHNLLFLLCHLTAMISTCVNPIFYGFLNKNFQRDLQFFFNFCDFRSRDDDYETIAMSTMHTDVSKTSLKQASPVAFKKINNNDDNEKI

[2] = molecular target: T2, Neuropeptide Y receptor type 2 (Homo sapiens, UniProt P49146); type: functional, cell-based;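 also: HEK293 cells expressing the receptor and a CNG channel; stimulus was NPY near EC95 followed by isoproterenol to raise cAMP; antagonist potency measured as restoring cAMP signal that NPY suppresses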
T2 sequence (P49146 whole entry): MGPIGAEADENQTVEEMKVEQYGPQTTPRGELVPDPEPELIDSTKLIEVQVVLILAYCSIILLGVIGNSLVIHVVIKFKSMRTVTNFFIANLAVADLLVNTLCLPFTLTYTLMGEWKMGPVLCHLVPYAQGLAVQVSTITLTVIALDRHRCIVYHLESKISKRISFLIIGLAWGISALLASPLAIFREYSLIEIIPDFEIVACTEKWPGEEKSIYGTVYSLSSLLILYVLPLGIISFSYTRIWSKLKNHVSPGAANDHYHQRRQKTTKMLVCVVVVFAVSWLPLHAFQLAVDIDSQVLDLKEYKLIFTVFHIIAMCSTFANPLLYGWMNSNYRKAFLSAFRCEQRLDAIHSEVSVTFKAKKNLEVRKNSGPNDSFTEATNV

Streptokinase A = molecular target: T3, Streptokinase A (Streptococcus pyogenes serotype M1, UniProt P10520); experiment: S. pyogenes streptokinase expression inhibitors, potency, dose response, plasminogen activation absorbance, OD405 (AID 1914); type: functional, Streptococcus pyogenes M1 GAS;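 also: secreted streptokinase activity via plasminogen activation per viability signal from cell pellet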
T3 sequence (P10520 whole entry): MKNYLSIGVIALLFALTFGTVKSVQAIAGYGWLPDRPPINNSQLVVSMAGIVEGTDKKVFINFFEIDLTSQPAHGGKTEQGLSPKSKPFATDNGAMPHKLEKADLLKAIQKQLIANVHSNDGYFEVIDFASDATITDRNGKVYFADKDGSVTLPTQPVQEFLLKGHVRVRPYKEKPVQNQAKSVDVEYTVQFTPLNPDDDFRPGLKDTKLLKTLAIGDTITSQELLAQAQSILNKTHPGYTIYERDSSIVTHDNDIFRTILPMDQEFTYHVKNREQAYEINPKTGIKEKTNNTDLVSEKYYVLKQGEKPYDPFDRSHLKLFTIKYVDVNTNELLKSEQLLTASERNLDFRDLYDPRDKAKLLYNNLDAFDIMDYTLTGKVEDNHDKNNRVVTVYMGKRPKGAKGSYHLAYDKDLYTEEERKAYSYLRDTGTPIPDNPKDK

[3] = molecular target: Neurotensin receptor type 1 (Homo sapiens, UniProt P30989); type: functional;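 also: Image-based confirmatory dose-response assay measuring agonist activity at NTR1; NTR1-expressing U2OS osteosarcoma cells imaged for beta-arrestin GFP spot formation; agonist potency where compounds increase beta-arrestin recruitment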
Neurotensin receptor type 1, sequence (P30989 whole entry): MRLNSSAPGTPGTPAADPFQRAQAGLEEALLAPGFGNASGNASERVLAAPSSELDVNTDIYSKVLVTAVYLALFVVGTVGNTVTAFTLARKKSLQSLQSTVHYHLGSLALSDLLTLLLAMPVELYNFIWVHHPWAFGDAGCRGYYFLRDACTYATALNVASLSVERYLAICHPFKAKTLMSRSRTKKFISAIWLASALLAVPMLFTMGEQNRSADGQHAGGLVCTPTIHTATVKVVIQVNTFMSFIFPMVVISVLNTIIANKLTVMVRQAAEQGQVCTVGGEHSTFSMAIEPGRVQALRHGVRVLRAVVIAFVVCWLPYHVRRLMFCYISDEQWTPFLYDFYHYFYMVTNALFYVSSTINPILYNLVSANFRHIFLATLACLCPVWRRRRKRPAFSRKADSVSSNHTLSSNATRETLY

[4] = molecular target: Melanin-concentrating hormone receptor 1 (Homo sapiens, UniProt Q99705); experiment: Late-stage fluorescence-based counterscreen for antagonists of the G-protein coupled receptor 7 (GPR7): cell-based dose response assay to identify antagonists of the melanin-concentrating hormone receptor 1 (MCHR1). [Related pubchem assays (depositor defined):AID1861, AID1880, AID1952, AID2148, AID2251, AID2257, AID485339]; type: functional;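 also: stimulated with 30 nM MCH peptide agonist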
Melanin-concentrating hormone receptor 1, sequence (Q99705 whole entry): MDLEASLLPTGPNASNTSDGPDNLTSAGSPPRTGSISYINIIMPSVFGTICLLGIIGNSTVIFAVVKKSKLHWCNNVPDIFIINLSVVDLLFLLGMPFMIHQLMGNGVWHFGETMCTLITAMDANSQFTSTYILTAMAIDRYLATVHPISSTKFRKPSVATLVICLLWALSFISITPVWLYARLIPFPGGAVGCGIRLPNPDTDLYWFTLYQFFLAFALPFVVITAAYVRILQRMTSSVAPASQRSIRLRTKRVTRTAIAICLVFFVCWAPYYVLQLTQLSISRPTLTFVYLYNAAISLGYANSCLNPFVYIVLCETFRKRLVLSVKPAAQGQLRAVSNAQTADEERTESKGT

NADPH oxidase 1 = NADPH oxidase 1 (Homo sapiens, UniProt Q9Y5S8); type: functional, cell-based;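 also: Cell-based assay with luminescence read-out, IC50 derived from inhibitor dose-response curves; intracellular ROS from endogenous NOX1 in intact HT29 colon cancer cells; potency of inhibitors that lower the ROS luminescence signal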
NADPH oxidase 1, sequence (Q9Y5S8 whole entry, the tested form may be a part): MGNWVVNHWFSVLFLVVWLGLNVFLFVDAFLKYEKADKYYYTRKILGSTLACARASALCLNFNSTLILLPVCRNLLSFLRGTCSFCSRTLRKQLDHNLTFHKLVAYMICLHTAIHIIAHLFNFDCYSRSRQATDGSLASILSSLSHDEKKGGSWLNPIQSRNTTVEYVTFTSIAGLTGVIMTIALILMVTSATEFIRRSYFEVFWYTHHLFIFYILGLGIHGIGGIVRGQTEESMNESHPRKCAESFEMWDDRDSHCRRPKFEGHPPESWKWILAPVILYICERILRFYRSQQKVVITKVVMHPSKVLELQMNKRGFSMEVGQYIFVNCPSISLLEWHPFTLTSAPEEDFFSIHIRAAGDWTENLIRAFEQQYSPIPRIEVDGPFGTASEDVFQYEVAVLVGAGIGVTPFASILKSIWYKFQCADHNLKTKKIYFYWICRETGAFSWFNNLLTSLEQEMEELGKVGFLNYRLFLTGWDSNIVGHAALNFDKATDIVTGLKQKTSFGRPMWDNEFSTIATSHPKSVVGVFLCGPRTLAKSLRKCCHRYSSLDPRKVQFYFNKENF

Estrogen receptor = molecular target: T4, Estrogen receptor (Homo sapiens, UniProt P03372); experiment: potentiators of ERα–SRC-1 coactivator binding, dose response, biochemical, TR-FRET, ERα LBD (AID 737)
T4 sequence (P03372 whole entry): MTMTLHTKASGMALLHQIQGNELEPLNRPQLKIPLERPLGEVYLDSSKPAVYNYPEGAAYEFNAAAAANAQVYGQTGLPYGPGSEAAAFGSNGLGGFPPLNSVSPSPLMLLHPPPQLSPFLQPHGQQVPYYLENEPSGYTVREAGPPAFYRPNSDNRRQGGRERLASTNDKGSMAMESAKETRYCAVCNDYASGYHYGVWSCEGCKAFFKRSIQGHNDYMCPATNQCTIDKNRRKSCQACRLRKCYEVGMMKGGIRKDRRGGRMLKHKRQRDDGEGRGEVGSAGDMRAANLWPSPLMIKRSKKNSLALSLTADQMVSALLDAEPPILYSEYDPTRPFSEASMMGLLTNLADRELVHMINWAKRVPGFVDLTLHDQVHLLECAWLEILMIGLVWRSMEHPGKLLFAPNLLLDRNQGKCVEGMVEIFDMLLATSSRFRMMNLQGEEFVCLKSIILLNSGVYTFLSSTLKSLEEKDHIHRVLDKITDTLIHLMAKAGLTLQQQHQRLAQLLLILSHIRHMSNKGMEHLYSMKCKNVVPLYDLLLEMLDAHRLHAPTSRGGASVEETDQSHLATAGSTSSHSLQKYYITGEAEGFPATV

Cytochrome P450 3A4 [5] = molecular target: T5, Cytochrome P450 3A4 (Homo sapiens, UniProt P08684); conditions: Potency
T5 sequence (P08684 whole entry): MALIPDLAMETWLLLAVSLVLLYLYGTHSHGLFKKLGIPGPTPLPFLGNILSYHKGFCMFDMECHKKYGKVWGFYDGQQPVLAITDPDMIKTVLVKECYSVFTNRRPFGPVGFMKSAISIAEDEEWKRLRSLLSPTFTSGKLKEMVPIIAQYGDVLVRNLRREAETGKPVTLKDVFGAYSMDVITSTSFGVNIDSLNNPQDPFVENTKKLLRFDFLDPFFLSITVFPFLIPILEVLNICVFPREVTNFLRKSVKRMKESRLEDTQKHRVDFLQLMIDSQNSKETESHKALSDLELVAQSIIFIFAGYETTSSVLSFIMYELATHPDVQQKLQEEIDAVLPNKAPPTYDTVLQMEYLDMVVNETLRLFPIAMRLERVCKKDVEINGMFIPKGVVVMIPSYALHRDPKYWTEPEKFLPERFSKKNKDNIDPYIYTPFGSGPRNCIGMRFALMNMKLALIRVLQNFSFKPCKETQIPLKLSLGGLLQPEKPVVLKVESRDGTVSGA

[6] = molecular target: G-protein coupled receptor 35 (Homo sapiens, UniProt Q9HC97); experiment: GPR35 antagonists blocking zaprinast-driven arrestin recruitment, primary screen, imaging, U2OS, beta-arrestin-GFP, zaprinast agonist (AID 2058); type: functional;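 also: antagonist potency meaning inhibition of agonist-induced arrestin redistribution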
G-protein coupled receptor 35, sequence (Q9HC97 whole entry): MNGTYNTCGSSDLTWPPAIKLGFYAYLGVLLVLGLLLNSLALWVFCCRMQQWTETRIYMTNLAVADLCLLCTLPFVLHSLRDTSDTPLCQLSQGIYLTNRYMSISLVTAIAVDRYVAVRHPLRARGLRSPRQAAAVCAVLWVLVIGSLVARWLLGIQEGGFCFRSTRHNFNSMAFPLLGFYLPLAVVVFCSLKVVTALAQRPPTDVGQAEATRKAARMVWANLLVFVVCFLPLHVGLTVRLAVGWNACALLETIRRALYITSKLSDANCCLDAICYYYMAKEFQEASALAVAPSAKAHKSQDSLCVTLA

[7] = inhibitors of SNCA 5'UTR-driven reporter translation, confirmation, H4 neuroglioma cells, luminescence (AID 1988); type: functional, cell-based
[8] = cytotoxicity in KRAS-transformed pancreatic duct cells, primary screen, cell-based, fluorescence, HTS (AID 431); type: functional; conditions: Homo sapiens;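 also: cell line used: HPDE-C7K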
[9] = Luminescence Cell-Based Dose Response HTS to Identify Inhibitors of 5'UTR Stem-Loop Driven Prion Protein mRNA Translation in H4 Neuroglioblastoma Cells. [Related pubchem assays: 1827 (Project Summary), 1813 (Primary HTS)]; type: functional
cells = type: functional, cell-based
[10] = inhibitors of firefly luciferase expression or activity, dose response, H4 neuroglioma cells, luminescence (AID 1990); type: functional, cell-based
[11] = inhibitors of SNCA 5'UTR-driven translation, confirmation, luminescence, H4 neuroglioblastoma cells, dose confirmation (AID 2454); type: functional, cell-based;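 also: H4 neuroglioblastoma cells carrying an alpha-synuclein 5'UTR luciferase reporter; potency for inhibition of the luciferase signal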
[12] = test system: Streptococcus sp. 'group A'; experiment: growth inhibition of control SK(-) GAS strain, dose response, counter-screen for streptokinase expression inhibitor project, luminescence, kanamycin, BacTiterGlo, confirmation (AID 1900); type: functional, organism-based
Streptococcus = experiment: Group A Streptococcus viability loss, dose response, counter-screen for streptokinase expression inhibitor project, luminescence, BacTiterGlo (AID 1915); type: functional, organism-based;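 also: potency for reduction of bacterial viability or growth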
[13] = luciferase reporter signal reduction – luminescence, H4-C neuroglioblastoma cells, dose response (AID 2458); type: functional, cell-based;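 also: H4 neuroglioblastoma cells stably carrying a luciferase reporter gene fusion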
[14] = cytotoxicity in HEK-293T cells, dose response, cytotoxicity control for TCR NF-kB inhibitor project, luminescence, T-cell screen hits (AID 489026); type: functional, cell-based;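 also: cells exposed to compound about 14 hours before the viability readout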
[15] = cytotoxicity in HPDE-C7 cells, cell-based, fluorescence, HTS (AID 430); type: functional; conditions: Homo sapiens
SUMO-activating enzyme [16] = molecular target: T6, SUMO-activating enzyme (Homo sapiens, UniProt Q9UBT2); experiment: inhibitors of in vitro SUMOylation cascade, primary screen, biochemical, HTRF, uHTS (AID 2006); type: protein-complex assay
T6 sequence (Q9UBE0 whole entry): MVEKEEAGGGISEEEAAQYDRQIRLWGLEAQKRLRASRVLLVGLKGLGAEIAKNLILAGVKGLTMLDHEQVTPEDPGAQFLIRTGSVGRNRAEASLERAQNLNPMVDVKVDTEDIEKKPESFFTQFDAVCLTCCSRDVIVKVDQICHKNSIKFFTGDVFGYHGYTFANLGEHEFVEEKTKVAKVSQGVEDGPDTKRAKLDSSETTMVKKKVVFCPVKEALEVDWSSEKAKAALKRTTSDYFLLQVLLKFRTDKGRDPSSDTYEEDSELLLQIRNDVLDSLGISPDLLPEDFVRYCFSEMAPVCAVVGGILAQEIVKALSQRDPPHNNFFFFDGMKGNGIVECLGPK
T6 sequence (Q9UBT2 whole entry): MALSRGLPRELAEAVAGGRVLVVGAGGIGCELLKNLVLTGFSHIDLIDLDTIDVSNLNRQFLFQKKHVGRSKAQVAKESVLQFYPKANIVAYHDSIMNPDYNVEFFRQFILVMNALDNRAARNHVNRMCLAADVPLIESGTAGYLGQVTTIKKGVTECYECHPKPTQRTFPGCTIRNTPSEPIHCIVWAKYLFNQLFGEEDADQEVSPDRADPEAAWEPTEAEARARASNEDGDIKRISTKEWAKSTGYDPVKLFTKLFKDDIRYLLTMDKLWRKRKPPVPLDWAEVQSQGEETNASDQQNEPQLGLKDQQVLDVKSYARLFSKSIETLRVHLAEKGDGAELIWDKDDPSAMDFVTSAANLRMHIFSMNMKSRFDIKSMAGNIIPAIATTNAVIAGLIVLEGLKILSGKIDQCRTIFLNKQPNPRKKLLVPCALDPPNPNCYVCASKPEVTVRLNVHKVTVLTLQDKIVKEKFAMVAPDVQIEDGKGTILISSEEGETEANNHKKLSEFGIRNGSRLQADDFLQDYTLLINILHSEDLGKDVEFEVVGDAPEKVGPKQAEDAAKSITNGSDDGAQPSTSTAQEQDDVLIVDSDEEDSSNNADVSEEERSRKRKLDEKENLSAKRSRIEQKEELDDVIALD

[17] = molecular target: 26S proteasome non-ATPase regulatory subunit 14 (Homo sapiens, UniProt O00487); experiment: inhibition of proteasome subunit RPN11 – biochemical, fluorescence polarization, uHTS hits, confirmation (AID 602368); type: functional
26S proteasome non-ATPase regulatory subunit 14, sequence (O00487 whole entry): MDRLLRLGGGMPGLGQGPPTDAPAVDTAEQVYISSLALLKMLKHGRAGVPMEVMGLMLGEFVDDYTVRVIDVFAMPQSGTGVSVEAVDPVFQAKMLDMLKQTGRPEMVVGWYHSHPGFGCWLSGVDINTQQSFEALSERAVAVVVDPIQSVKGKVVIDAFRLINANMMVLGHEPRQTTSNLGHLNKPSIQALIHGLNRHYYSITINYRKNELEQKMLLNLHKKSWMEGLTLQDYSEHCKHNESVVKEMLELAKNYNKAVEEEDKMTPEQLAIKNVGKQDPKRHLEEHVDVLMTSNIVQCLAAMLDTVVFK

[18] = molecular target: 72 kDa type IV collagenase (Homo sapiens, UniProt P08253); experiment: Dose Response validation of uHTS RPN11 inhibitor hits using a MMP-2 Fluorescence assay.; type: functional
72 kDa type IV collagenase, sequence (P08253 whole entry): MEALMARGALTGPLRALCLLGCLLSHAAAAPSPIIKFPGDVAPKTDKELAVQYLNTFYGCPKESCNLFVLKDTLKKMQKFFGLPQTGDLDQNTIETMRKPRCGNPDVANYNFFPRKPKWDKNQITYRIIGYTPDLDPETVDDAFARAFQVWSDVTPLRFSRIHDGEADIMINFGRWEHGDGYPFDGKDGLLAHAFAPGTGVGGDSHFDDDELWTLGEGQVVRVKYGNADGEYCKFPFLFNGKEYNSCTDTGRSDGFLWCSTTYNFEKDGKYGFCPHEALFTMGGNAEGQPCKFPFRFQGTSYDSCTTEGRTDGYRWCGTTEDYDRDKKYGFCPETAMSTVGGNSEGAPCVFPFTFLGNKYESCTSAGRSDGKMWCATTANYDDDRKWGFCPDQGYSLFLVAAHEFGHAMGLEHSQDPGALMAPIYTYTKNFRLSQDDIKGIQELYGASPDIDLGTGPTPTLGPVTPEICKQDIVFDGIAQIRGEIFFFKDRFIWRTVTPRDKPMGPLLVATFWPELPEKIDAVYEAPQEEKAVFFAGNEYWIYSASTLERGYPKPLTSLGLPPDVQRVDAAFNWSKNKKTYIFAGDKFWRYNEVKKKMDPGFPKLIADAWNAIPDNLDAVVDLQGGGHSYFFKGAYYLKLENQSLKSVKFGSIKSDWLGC

[19] = molecular target: T7, Small ubiquitin-related modifier 1 (Homo sapiens, UniProt P63165); experiment: inhibitors of SUMO1 partner interactions, dose response, biochemical, FRET (AID 624383); type: functional; conditions: read-out: IC50_Mean
T7 sequence (P63165 whole entry): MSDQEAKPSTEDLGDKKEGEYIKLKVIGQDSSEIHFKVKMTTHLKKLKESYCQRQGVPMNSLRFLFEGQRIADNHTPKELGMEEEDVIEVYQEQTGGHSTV

[20] = molecular target: T7, Small ubiquitin-related modifier 1; experiment: inhibitors of SUMO1 peptide binding, dose response, biochemical, fluorescence polarization, uHTS hits (AID 624382); type: functional; conditions: read-out: IC50_Mean
SUMO-activating enzyme [21] = molecular target: T6, SUMO-activating enzyme; experiment: SUMOylation inhibitor hit validation, confirmation, SUMOylation inhibitor project, biochemical, AlphaScreen (AID 2018); type: functional
Prothrombin = Prothrombin (Bos taurus, UniProt P00735); experiment: thrombin inhibition, dose response, biochemical, fluorescence polarization, uHTS hits (AID 602369); type: functional
Estrogen receptor beta = Estrogen receptor beta (Homo sapiens, UniProt Q92731); experiment: ERβ–SRC-3 coactivator interaction inhibitors, confirmation, orthogonal assay, biochemical, ELISA, streptavidin-HRP readout (AID 1060)
Estrogen receptor beta, sequence (Q92731 whole entry): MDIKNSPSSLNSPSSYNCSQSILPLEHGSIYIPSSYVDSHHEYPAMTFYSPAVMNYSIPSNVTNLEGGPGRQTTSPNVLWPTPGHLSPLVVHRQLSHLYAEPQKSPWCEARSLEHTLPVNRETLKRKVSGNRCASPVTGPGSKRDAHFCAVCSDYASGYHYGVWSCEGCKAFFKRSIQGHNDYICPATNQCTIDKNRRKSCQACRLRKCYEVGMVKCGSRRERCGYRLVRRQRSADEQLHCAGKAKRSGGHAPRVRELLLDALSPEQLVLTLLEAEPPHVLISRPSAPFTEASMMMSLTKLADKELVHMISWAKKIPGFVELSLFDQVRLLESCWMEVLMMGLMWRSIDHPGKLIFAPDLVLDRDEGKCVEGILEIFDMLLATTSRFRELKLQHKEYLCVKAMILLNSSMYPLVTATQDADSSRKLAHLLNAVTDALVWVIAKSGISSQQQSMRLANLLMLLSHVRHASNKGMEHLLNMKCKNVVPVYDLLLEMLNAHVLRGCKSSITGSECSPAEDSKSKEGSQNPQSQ

Large T antigen = Large T antigen (Simian virus 40, UniProt P03070); type: functional, Betapolyomavirus macacae;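 also: Confirmatory-stage PubChem screen for compounds that inhibit SV40 T antigen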
Cytochrome P450 3A4 [22] = molecular target: T5, Cytochrome P450 3A4
[23] = Luminescence Cell-Based Dose Response HTS to Identify Activators of Luciferase Translation or Activity in H4 […] Cells. [Related pubchem assays: 1829 (Project Summary), 1814 (Primary HTS)]; type: functional
[24] = Luminescence Cell-Based Dose Confirmation HTS to Identify Activators of 5'UTR Stem-Loop Driven Alpha-Synuclein mRNA Translation in H4 Neuroglioblastoma Cells. [Related pubchem assays: 1829 (Project Summary), 1814 (Primary HTS)]; type: functional
H4 = experiment: Luminescence Cell-Based Dose Response HTS to Identify Activators of 5'UTR Stem-Loop Driven Prion Protein mRNA Translation in H4 Neuroglioblastoma Cells. [Related pubchem assays: 1829 (Project Summary), 1814 (Primary HTS)]; type: functional; conditions: Homo sapiens
[25] = Luminescence Cell-Based Dose Retest to Confirm Inhibitors of Cancer Stem Cells. [Related pubchem assays (depositor defined):AID2717, AID2721]; type: functional; conditions: Homo sapiens

COC(=O)c1cc2occc2n1Cc1nc(-c2ccccc2Cl)oc1C
IC50 [1]: 7.7 µM (active) | IC50 [2]: 8.2 µM (active)

Cc1cccc(NC(=O)c2nc[nH]c2C(=O)N[C@@H](Cc2ccccc2)C(=O)OC(C)(C)C)c1
EC50 (Streptokinase A): > 150 µM (not active) | EC50 [3]: 17.9 µM (active)

COc1ccc(Oc2c(Cl)cnn(-c3cccc4c3CCCC4)c2=O)cc1
IC50 [4]: 4.1 µM (active)

CC(=O)Nc1ccc(/C=N/Nc2c(Cl)cc(Cl)cc2Cl)cc1
IC50 (NADPH oxidase 1): > 17 µM (not active)

CC1Cc2ccccc2N1C(=O)CSc1nnc(-c2ccc(S(=O)(=O)N3CCCC3)cc2)o1 (centres undefined)
EC50 (Estrogen receptor): 7.79 µM (active)

COc1ccc(-c2nc(-c3ccc(OC)c(OC)c3)[nH]c2-c2ccc(OC)cc2)cc1
IC50 (NADPH oxidase 1): > 17 µM (not active)

CC(=O)OC1CC2C(C)(C)C=CC(=O)[C@@]2(C)C2CC[C@@]3(C)C(c4ccoc4)OC(=O)C4OC43[C@]12C (some centres undefined)
AC50 (Cytochrome P450 3A4 [5]): 15.8 µM (inconclusive)

COc1ccc(-c2[nH]nc3c2C(c2ccc(OC)c(OC)c2)N(c2ccccc2)C3=O)cc1 (centres undefined)
IC50 [1]: 7.8 µM (active) | IC50 [2]: 4.36 µM (active)

CCOC(=O)c1c(-c2ccccc2)csc1NC(=O)/C(C#N)=C/c1ccc(O)c(OC)c1
IC50 [6]: 2.75 µM (active)

CCN(CC)c1ccc(-c2nn3c(-c4ccccc4OC)nnc3s2)cc1
EC50 (Streptokinase A): > 150 µM (not active) | EC50 [7]: < 0.1 µM (active) | EC50 [8]: > 20 µM (not active) | EC50 [9]: 8.94 µM (active) | EC50 (Estrogen receptor): 18.2 µM (active) | EC50 (cells): 0.346 µM (active) | EC50 [10]: < 0.1 µM (active) | EC50 [11]: 0.17 µM (active) | EC50 [12]: 6.86 µM (active) | EC50 (Streptococcus): 8.67 µM (active) | EC50 [13]: 0.214 µM (active) | IC50 [14]: 49.9 µM (inactive) | EC50 [15]: > 20 µM (not active)

Sc1nnc(-c2cc(-c3ccccc3)[nH]n2)n1/N=C/c1cccc(Cl)c1
IC50 (SUMO-activating enzyme [16]): 11.1 µM (active) | IC50 [17]: 11.4 µM (active) | EC50 (Streptokinase A): > 150 µM (not active) | IC50 [18]: > 100 µM (inactive) | EC50 [12]: 16.7 µM (active) | IC50 [19]: 5.8 µM (active) | EC50 (Streptococcus): 84.4 µM (active) | IC50 [20]: > 66.6 µM (inactive) | IC50 (SUMO-activating enzyme [21]): 3.34 µM (active) | IC50 (Prothrombin): 33.8 µM (active)

CCCn1c(-c2ccc(F)cc2)nc2c(NCC3CCN(C)CC3)nc(C)nc21
AC50 (Cytochrome P450 3A4 [5]): 15.8 µM (inconclusive)

NC(=O)Cn1c(=O)n(Cc2ccco2)c(=O)c2c3c(sc21)CCCCC3
IC50 (Estrogen receptor beta): < 0.023 µM (not active) | IC50 (Large T antigen): 33 µM (active) | AC50 (Cytochrome P450 3A4 [22]): 25.1 µM (inconclusive) | EC50 [23]: > 120 µM (not active) | EC50 [24]: > 120 µM (not active) | EC50 (H4): > 120 µM (not active)

CCCCNc1c(-c2cccc(Sc3ccc(OC)cc3)c2)nc2ccccn12
EC50 [3]: 27.5 µM (inactive) | AC50 [25]: 5.22 µM (active)
